Test results taken from patent US20130316394A1, “VIABILITY STAINING METHOD” (priority 2012, published 2013).

Tests used:
[1] = test system: E. coli; assay: Discrimination of viable and non-viable E. coli in solution with fluorescent probe and two PET quenchers; assay type: cell-based; conditions: mixed viable/heat killed E. coli, 0.005 mM Oxazine 170 perchlorate, 0.4 mM p-Sulfonic calix[6]arene, 100 mM Sodium ascorbate in PBS, about 5 min
Procedure: The viable and heat killed E. coli were preparations were prepared as described in Example 1. The heat killed E. coli suspension was then combined with the viable cell suspension and mixed by vortexing. The resulting cell suspension served as the viable and non-viable E. coli solution.
A fluorescent probe-quencher stain was prepared as a solution consisting of 0.005 mM Oxazine 170 perchlorate (Sigma-Aldrich, St. Louis, Mo.), 0.4 mM p-Sulfonic calix[6]arene (TCI America, Portland, Oreg.), 100 mM Sodium ascorbate (Sigma-Aldrich, St. Louis, Mo.) in PBS.
The viable and non-viable E. coli suspension was then diluted 1:1000 into the fluorescent probe-quencher solution to stain the cells. After incubation for approximately 5 minutes, a droplet of the stained cell solution was placed onto a microscope slide and imaged on a fluorescent microscope (Carl Zeiss, LLC, Thornwood, N.Y.).
FIGS. 20A and 20B show a combined image of the viable and non-viable stained E. coli captured under phase contrast (FIG. 20A) as well as fluorescent conditions (excitation 575-625 nm, emission 660-710 nm) (FIG. 20B). The viable and non-viable cells were indistinguishable in phase contrast but under fluorescent conditions the viable cells were brightly fluorescent whereas the non viable cells were not.

[2] = test system: E. coli; assay: Imaging of viable and heat killed E. coli on a membrane with fluorescent probe and quencher wash; assay type: cell-based; conditions: 0.005 mM Oxazine 170 perchlorate stain, 10 mM quencher wash in PBS
Procedure: Viable and non-viable E. coli cell fractions were prepared by picking a colony cultured on a conventional media plate and then transferring the cells into Phosphate Buffered Saline (PBS). The cells then were suspended by vortexing and then were further diluted in PBS to give a turbidity equivalent to a 1.0 McFarland standard. This stock solution served as the live cell fraction. An aliquot of the live cell fraction was transferred to a glass tube that was placed into a boiling water bath for about 15 minutes to heat kill the E. coli. The tube was removed from the bath and allowed to cool to room temperature. This heat killed suspension served as the dead cell fraction.
A fluorescent stain solution was prepared as a 0.005 mM solution of Oxazine 170 perchlorate (Sigma-Aldrich, St. Louis, Mo.) in PBS containing a 1:100,000 dilution of 10% w/v 0.8 μm Sky Blue latex fluorescent particles (Spherotech, Lake Forest, Ill.). A separate quencher wash solution was prepared as a 10 mM Sodium ascorbate (Sigma-Aldrich, St. Louis, Mo.) solution in PBS. […]
The cells then were imaged using a fluorescent microscope (Carl Zeiss, LLC—Thornwood, N.Y.) with an excitation of 575 nm-625 nm and measured emission of 660 nm-710 nm. […]

SMILES	permeation of non-viable cell membranes and quenching of fluorescence [1]	permeation of the quencher into heat killed cells and effect on fluorescence ([2]; heat killed E. coli on 0.2 μm membrane)	permeation of the quencher into viable cells ([2]; live E. coli on 0.2 μm membrane)
O=S(=O)(O)c1cc2c(O)c(c1)Cc1cc(S(=O)(=O)O)cc(c1O)Cc1cc(S(=O)(=O)O)cc(c1O)Cc1cc(S(=O)(=O)O)cc(c1O)Cc1cc(S(=O)(=O)O)cc(c1O)Cc1cc(S(=O)(=O)O)cc(c1O)C2 [p-Sulfonic calix[6]arene, 4- Sulfocalix [6]arene]	effective quenching of fluorescence	–	–
O=C1O[C@H]([C@@H](O)CO)C([O-])=C1O.[Na+] [sodium ascorbate, Sodium Ascorbate]	effective quenching of fluorescence	quenching of the fluorescent signal and a loss of fluorescence	excluded from the viable cells
